According to ChEMBL document CHEMBL6153110, “Peptide Double-Stapling and Arginine N-Glycosylation Triggered the Development of Therapeutic Antimicrobial Peptides Capable of Killing Drug-Resistant Bacteria in Mice” (J Med Chem, 2025):
Converted amounts (≈) assume the structure as drawn. The source made the active and inactive calls. The calls are words filed in the database; no cut-off is given here. Positions of bridges follow the written chain, without caps; N, C: chain ends. Non-standard residues stand in square brackets, D forms with d. Residues, ends and D or L forms follow the SMILES beside them. S5 = C=CCCC[C@](C)(N)C(=O)O

Assays:
Klebsiella pneumoniae [1] = test: Antimicrobial activity against Klebsiella pneumoniae ATCC 13883 assessed as growth inhibition measured after 8 hrs incubation by standard broth dilution assay; type: functional
Staphylococcus aureus [2] = test: Antimicrobial activity against methicillin-resistant Staphylococcus aureus ATCC 43300 assessed as growth inhibition measured after 8 hrs incubation by standard broth dilution assay; type: functional
Pseudomonas aeruginosa = test: Antimicrobial activity against Pseudomonas aeruginosa ATCC 27853 assessed as growth inhibition measured after 8 hrs incubation by standard broth dilution assay; type: functional
Streptococcus pneumoniae = test: Antimicrobial activity against Streptococcus pneumoniae ATCC 49619 assessed as growth inhibition measured after 8 hrs incubation by standard broth dilution assay; type: functional
Cell membrane [3] = test: Binding affinity to Klebsiella pneumoniae ATCC 13883 cell membrane treated with FITC labelled peptides at MIC measured after 1.5 hr by CLSM imaging analysis; type: subcellular
Cell membrane [4] = test: Binding affinity to methicillin-resistant Staphylococcus aureus ATCC 43300 cell membrane treated with FITC labelled peptides at MIC measured after 1.5 hr by CLSM imaging analysis; type: subcellular
Cell membrane [5] = test: Induction of cell membrane damage in Klebsiella pneumoniae ATCC 13883 assessed as increase in red fluorescence at MIC measured after 1 hr incubation by PI based confocal microscopy; type: subcellular
Cell membrane [6] = test: Induction of cell membrane damage in Klebsiella pneumoniae ATCC 13883 assessed as increase in green fluorescence at MIC measured after 1 hr incubation by SYTO9 confocal microscopy; type: subcellular
Cell membrane [7] = test: Induction of cell membrane damage in methicillin-resistant Staphylococcus aureus ATCC 43300 assessed as increase in red fluorescence at MIC measured after 1 hr incubation by PI based assay; type: subcellular
Cell membrane [8] = test: Induction of cell membrane damage in methicillin-resistant Staphylococcus aureus ATCC 43300 assessed as increase in green fluorescence at MIC measured after 1 hr incubation by SYTO9 confocal microscopy; type: subcellular
Cell membrane [9] = test: Induction of cell membrane damage in Klebsiella pneumoniae ATCC 13883 assessed as corrugation, blebbing, breakage, and fragmentation at MIC measured after 1 hr incubation by Scanning electron microscopy; type: subcellular
Cell membrane [10] = test: Induction of cell membrane damage in methicillin-resistant Staphylococcus aureus ATCC 43300 assessed as corrugation, blebbing, breakage, and fragmentation at MIC measured after 1 hr incubation by Scanning electron microscopy; type: subcellular
Cell membrane [11] = test: Induction of cell membrane damage in Klebsiella pneumoniae ATCC 13883 assessed as significant plasma membrane rupture, cytosolic membrane and outer membrane separation, and cytoplasmic leakage at MIC measured after 1 hr incubation by Transmission electron microscopy; type: subcellular
Cell membrane [12] = test: Induction of cell membrane damage in methicillin-resistant Staphylococcus aureus ATCC 43300 assessed as significant plasma membrane rupture, […], and cytoplasmic leakage at MIC measured after 1 hr incubation by Transmission electron microscopy; type: subcellular
Klebsiella pneumoniae [13] = test: Antibiofilm activity in Klebsiella pneumoniae ATCC 13883 assessed as reduction in biofilm formation at 150 ug/ml measured after 24 hrs by crystal violet staining based assay relative to control; type: functional; parameters: scale not given: the % may be the effect or the level left; conditions: dose 150 µg/ml
Staphylococcus aureus [14] = test: Antibiofilm activity in methicillin-resistant Staphylococcus aureus ATCC 43300 assessed as reduction in biofilm formation at 37.2 ug/ml measured after 24 hrs by crystal violet staining based assay relative to control; type: functional; parameters: scale not given: the % may be the effect or the level left; conditions: dose 37.2 µg/ml
[15] = Toxicity in mouse skin assessed as abscesses and visual lesions at 40 mg/kg, sc by histological analysis; type: organism-based; conditions: in vivo
[16] = Toxicity in mouse assessed as intramuscular injury at 40 mg/kg, sc by H and E staining based assay; type: organism-based; conditions: in vivo
[17] = Toxicity in mouse assessed as fasciculus necrosis at 40 mg/kg, sc by H and E staining based assay; type: organism-based; conditions: in vivo
Staphylococcus aureus [18] = test: In vivo antibacterial activity against methicillin-resistant Staphylococcus aureus ATCC 43300 infected locally in full thickness skin wound mouse model assessed as clean and less exudate at 1 mg/kg treated with absorbable gelatin sponge measured on early healing stage; type: functional, organism-based; conditions: route id
Staphylococcus aureus [19] = test: In vivo antibacterial activity against methicillin-resistant Staphylococcus aureus ATCC 43300 infected locally in full thickness skin wound mouse model assessed as reduced skin damage by promoting wound healing at 4 mg/kg treated with absorbable gelatin sponge measured on early healing stage; type: functional, organism-based; conditions: route id
Staphylococcus aureus [20] = test: In vivo antibacterial activity against methicillin-resistant Staphylococcus aureus ATCC 43300 infected locally in full thickness skin wound mouse model assessed as reduction in bacterial load in skin wound at 1 mg/kg treated with absorbable gelatin sponge measured after 3 days; type: functional, organism-based; conditions: time 3.0 day
Staphylococcus aureus [21] = test: In vivo antibacterial activity against methicillin-resistant Staphylococcus aureus ATCC 43300 infected locally in full thickness skin wound mouse model assessed as reduction in bacterial load in skin wound at 4 mg/kg treated with absorbable gelatin sponge measured after 3 days; type: functional, organism-based; conditions: time 3.0 day
Staphylococcus aureus [22] = test: In vivo antibacterial activity against methicillin-resistant Staphylococcus aureus ATCC 43300 infected locally in full thickness skin wound mouse model assessed as reduction in bacterial load in skin wound at 4 mg/kg treated with absorbable gelatin sponge measured after 7 days; type: functional, organism-based; conditions: time 7.0 day
Staphylococcus aureus [23] = test: In vivo antibacterial activity against methicillin-resistant Staphylococcus aureus ATCC 43300 infected locally in full thickness skin wound mouse model assessed as reduction in bacterial load in skin wound at 1 mg/kg treated with absorbable gelatin sponge measured after 7 days; type: functional, organism-based; conditions: time 7.0 day
Klebsiella pneumoniae [24] = test: In vivo antibacterial activity against Klebsiella pneumoniae ATCC 13883 induced bacterial pneumonia mouse model assessed as reduction in bacterial infection induced weight loss at 1 mg/kg, injected into trachea after 24 hrs of infection measured after 3 to 7 days; type: functional, organism-based
Klebsiella pneumoniae [25] = test: In vivo antibacterial activity against Klebsiella pneumoniae ATCC 13883 induced bacterial pneumonia mouse model assessed as reduction in bacterial infection induced weight loss at 4 mg/kg, injected into trachea after 24 hrs of infection measured after 3 to 7 days; type: functional, organism-based
[26] = Hemolytic activity in BALB/c mouse red blood cells assessed as hemolysis incubated for 1 hrs; type: toxicity, cell-based, Erythrocyte; conditions: read-out: HD50

Which MIC (Klebsiella pneumoniae [1]) does the source give for `CC(=O)N[C@@H](CC(C)C)C(=O)N[C@@H](CCCCN)C(=O)N[C@@H](CCCNC(=N)N)C(=O)N[C@H](C(=O)N[C@@H](Cc1c[nH]c2ccccc12)C(=O)N[C@@H](CCCCN)C(=O)N[C@@H](CCCNC(=N)N)C(=O)N[C@H](C(=O)N[C@@H](Cc1ccccc1)C(=O)N[C@@H](CCCCN)C(=O)N[C@@H](CC(C)C)C(=O)N[C@@H](CC(C)C)C(=O)N[C@@H](CCCCN)C(=O)N[C@@H](CCCNC(=N)N)C(=O)N[C@@H](Cc1ccc(O)cc1)C(=O)N[C@@H](Cc1c[nH]c2ccccc12)C(=O)N[C@@H](CCCNC(=N)N)C(=O)N[C@@H](CCC(N)=O)C(=O)N[C@@H](CC(C)C)C(=O)N[C@@H](CCCCN)C(=O)N[C@@H](CCCCN)C(=O)N1CCC[C@H]1C(=O)N[C@H](C(=O)N[C@@H](CCCNC(=N)N)C(N)=O)C(C)C)C(C)C)C(C)C` (Ac-LKRVWKRVFKLLKRYWRQLKKPVR-NH2) here?
The MIC was 38 µg/mL (≈ 11.6 µM).

What about the MIC (Staphylococcus aureus [2]) of the same compound?
Its MIC is 9.7 µg/mL (≈ 2.97 µM).

And the MIC (Pseudomonas aeruginosa)?
Its MIC is 4.9 µg/mL (≈ 1.5 µM).

And the MIC (Streptococcus pneumoniae)?
Its MIC is 4.7 µg/mL (≈ 1.44 µM).

And the Activity (Cell membrane [3])?
The Activity was “Active”.

And the Activity (Cell membrane [4])?
The Activity was “Active”.

What about the Activity (Cell membrane [5]) of the same compound?
Its Activity is “Active”.

What about the Activity (Cell membrane [6]) of the same compound?
The Activity was “Active”.

What about the Activity (Cell membrane [7]) of the same compound?
Its Activity is “Active”.

What about the Activity (Cell membrane [8]) of the same compound?
The Activity was “Active”.

What about the Activity (Cell membrane [9]) of the same compound?
The Activity was “inactive”.

What about the Activity (Cell membrane [10]) of the same compound?
Its Activity is “inactive”.

What about the Activity (Cell membrane [11]) of the same compound?
The Activity was “Active”.

What about the Activity (Cell membrane [12]) of the same compound?
The Activity was “Active”.

What about the Activity (Klebsiella pneumoniae [13]) of the same compound?
Its Activity is 86.42%.

And the Activity (Staphylococcus aureus [14])?
The Activity was 77.25%.

What about the Activity [15] of the same compound?
The Activity was “Toxic”.

What about the Activity [16] of the same compound?
Its Activity is “Toxic”.

And the Activity [17]?
The Activity was “Toxic”.

What about the Activity (Staphylococcus aureus [18]) of the same compound?
The Activity was “Active; Model Group Showed Yellowish Compared With The Wounds Treated With Compound”.

And the Activity (Staphylococcus aureus [19])?
Its Activity is “Active”.

And the Activity (Staphylococcus aureus [20])?
The Activity was “Active”.

What about the Activity (Staphylococcus aureus [21]) of the same compound?
Its Activity is “Active”.

What about the Activity (Staphylococcus aureus [22]) of the same compound?
The Activity was “Active”.

And the Activity (Staphylococcus aureus [23])?
The Activity was “Active”.

And the Activity (Klebsiella pneumoniae [24])?
The Activity was “Active”.

What about the Activity (Klebsiella pneumoniae [25]) of the same compound?
The Activity was “Active”.

For `CC(=O)N[C@@H](CC(C)C)C(=O)N[C@@H](CCCCN)C(=O)N[C@@H](CCCNC(=N)N)C(=O)N[C@H](C(=O)N[C@@H](CCCCN)C(=O)N[C@@H](CCCCN)C(=O)N[C@@H](CCCNC(=N)N)C(=O)N[C@H](C(=O)N[C@@H](Cc1ccccc1)C(=O)N[C@@H](CCCCN)C(=O)N[C@@H](CC(C)C)C(=O)N[C@@H](CC(C)C)C(=O)N[C@@H](CCCCN)C(=O)N[C@@]1(C)CCC/C=C\CCC[C@@](C)(C(=O)N[C@@H](CC(C)C)C(=O)N[C@@H](CCCCN)C(=O)N[C@@H](CCCCN)C(=O)N2CCC[C@H]2C(=O)N[C@H](C(=O)N[C@@H](CCCNC(=N)N)C(N)=O)C(C)C)NC(=O)[C@H](CCCNC(=N)N)NC(=O)[C@H](Cc2c[nH]c3ccccc23)NC(=O)[C@H](Cc2ccc(O)cc2)NC1=O)C(C)C)C(C)C` (Ac-LKRVKKRVFKLLK[S5]YWR[S5]LKKPVR-NH2; staple (Z) 14-18), which MIC (Klebsiella pneumoniae [1]) is on record?
The MIC was 10.1 µg/mL (≈ 3.18 µM).

And the MIC (Staphylococcus aureus [2])?
Its MIC is 19 µg/mL (≈ 5.98 µM).

What about the MIC (Pseudomonas aeruginosa) of the same compound?
Its MIC is 5 µg/mL (≈ 1.57 µM).

And the MIC (Streptococcus pneumoniae)?
Its MIC is 4.7 µg/mL (≈ 1.48 µM).

What about the HC50 at 1 h [26] of the same compound?
The HC50 at 1 h was 15.3 µg/mL.

What does the source list for `CC(=O)N[C@@H](CC(C)C)C(=O)N[C@@H](CCCCN)C(=O)N[C@@H](CCCNC(=N)N)C(=O)N[C@@H](CCCCN)C(=O)N[C@@H](Cc1c[nH]c2ccccc12)C(=O)N[C@@H](CCCCN)C(=O)N[C@@H](CCCNC(=N)N)C(=O)N[C@H](C(=O)N[C@@H](Cc1ccccc1)C(=O)N[C@@H](CCCCN)C(=O)N[C@@H](CC(C)C)C(=O)N[C@@H](CC(C)C)C(=O)N[C@@H](CCCCN)C(=O)N[C@@]1(C)CCC/C=C\CCC[C@@](C)(C(=O)N[C@@H](CC(C)C)C(=O)N[C@@H](CCCCN)C(=O)N[C@@H](CCCCN)C(=O)N2CCC[C@H]2C(=O)N[C@H](C(=O)N[C@@H](CCCNC(=N)N)C(N)=O)C(C)C)NC(=O)[C@H](CCCNC(=N)N)NC(=O)[C@H](Cc2c[nH]c3ccccc23)NC(=O)[C@H](Cc2ccc(O)cc2)NC1=O)C(C)C` (Ac-LKRKWKRVFKLLK[S5]YWR[S5]LKKPVR-NH2; staple (Z) 14-18)?
MIC (Klebsiella pneumoniae [1]): 10.1 µg/mL (≈ 3.1 µM); MIC (Staphylococcus aureus [2]): 4.9 µg/mL (≈ 1.5 µM); MIC (Pseudomonas aeruginosa): 5 µg/mL (≈ 1.53 µM); MIC (Streptococcus pneumoniae): 2.4 µg/mL (≈ 0.736 µM); HC50 at 1 h [26]: 9.9 µg/mL

With `CC(=O)N[C@@H](CC(C)C)C(=O)N[C@@H](CCCCN)C(=O)N[C@@H](CCCNC(=N)N)C(=O)N[C@H](C(=O)N[C@@H](Cc1c[nH]c2ccccc12)C(=O)N[C@@H](CCCCN)C(=O)N[C@@H](CCCNC(=N)N)C(=O)N[C@H](C(=O)N[C@@H](Cc1ccccc1)C(=O)N[C@@H](CCCCN)C(=O)N[C@@H](CC(C)C)C(=O)N[C@@H](CC(C)C)C(=O)N[C@@H](CCCCN)C(=O)N[C@@]1(C)CCC/C=C\CCC[C@@](C)(C(=O)N[C@@H](CC(C)C)C(=O)N[C@@H](CCCCN)C(=O)N[C@@H](CCCCN)C(=O)N[C@@H](CCCCN)C(=O)N[C@H](C(=O)N[C@@H](CCCNC(=N)N)C(N)=O)C(C)C)NC(=O)[C@H](CCCNC(=N)N)NC(=O)[C@H](Cc2c[nH]c3ccccc23)NC(=O)[C@H](Cc2ccc(O)cc2)NC1=O)C(C)C)C(C)C` (Ac-LKRVWKRVFKLLK[S5]YWR[S5]LKKKVR-NH2; staple (Z) 14-18) as the compound, how does the MIC (Klebsiella pneumoniae [1]) read?
The MIC was 10.1 µg/mL (≈ 3.09 µM).

What about the MIC (Staphylococcus aureus [2]) of the same compound?
Its MIC is 4.9 µg/mL (≈ 1.5 µM).

And the MIC (Pseudomonas aeruginosa)?
The MIC was 5 µg/mL (≈ 1.53 µM).

What about the MIC (Streptococcus pneumoniae) of the same compound?
The MIC was 4.7 µg/mL (≈ 1.44 µM).

And the HC50 at 1 h [26]?
Its HC50 at 1 h is 13.1 µg/mL.
